# Results reported in US20160175318A1, “COMPOSITIONS COMPRISING ANTIBACTERIAL AGENT AND TAZOBACTAM” (WOCKHARDT LIMITED, priority 2013, published 2016).
# Like-named read-outs stand apart in the source and are kept apart here.
# Key:
# Type in all cases: cell-based
# E. coli B-89 [1] = experiment: MIC by agar dilution (CLSI) against highly resistant ESBL strain; conditions: E. coli B-89
# How it was run: (§1)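 Agar dilution, CLSI: diluted overnight inoculum on doubling-dilution antibiotic plates; cephalosporins ± tazobactam; 16-20 h, 35±2° C, ambient air; growth/no growth read.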
# E. coli M50 [2] = experiment: as above
# How it was run: as §1
# E. cloacae M-20 = experiment: as above; conditions: E. cloacae M-20
# How it was run: as §1
# K. pneumoniae M150 = experiment: as above
# How it was run: as §1
# E. coli 7MP [3] = experiment: as above; conditions: E. coli 7MP
# How it was run: as §1
# E. coli B123 = experiment: as above; conditions: for Activity (MIC, method of Example 1), Table 7: E. coli B-123; for MIC: Escherichia coli, B123, E. coli B123, read-out: MIC
# How it was run: as §1
# E. coli B-89 [4] = experiment: Quantitative drug diffusion assay (disc, zone of inhibition, CLSI); set-up: key to Interpretation of zone as per CLSI recommendations: R: Resistant; I: Intermediate; S: Sensitive (Interpretation as per CLSI recommendations, 2010)
# How it was run: (§2)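 Following CLSI guidance, diluted overnight cultures were incorporated into poured agar and overlaid with 6 mm drug discs. Zones of inhibition were scored after 16-18 h incubation at 35±2° C in air.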
# E. coli B-123 = experiment: as above; set-up: key to Interpretation of zone as per CLSI recommendations: R: Resistant; I: Intermediate; S: Sensitive (Interpretation as per CLSI recommendations, 2010)
# How it was run: as §2
# E. coli M50 [5] = experiment: as above; set-up: key to Interpretation of zone as per CLSI recommendations: R: Resistant; I: Intermediate; S: Sensitive (Interpretation as per CLSI recommendations, 2010)
# How it was run: as §2
# E. coli S-112 = experiment: as above; set-up: key to Interpretation of zone as per CLSI recommendations: R: Resistant; I: Intermediate; S: Sensitive (Interpretation as per CLSI recommendations, 2010)
# How it was run: as §2
# E. coli M-138 = experiment: as above; set-up: key to Interpretation of zone as per CLSI recommendations: R: Resistant; I: Intermediate; S: Sensitive (Interpretation as per CLSI recommendations, 2010)
# How it was run: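 Cefepime plus tazobactam and penicillins plus their ESBL inhibitors tested by CLSI disc diffusion. Diluted overnight cultures were seeded into molten, cooled agar; 6 mm antibiotic discs placed on the surface. Inhibition zones read after 16-18 h at 35±2° C in ambient air.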
# E. coli 7MP [6] = experiment: as above; set-up: key to Interpretation of zone as per CLSI recommendations: R: Resistant; I: Intermediate; S: Sensitive (Interpretation as per CLSI recommendations, 2010)
# How it was run: as §2
# [7] = ESBL inhibitor 0 mcg (antibiotic alone)
# [8] = Table 5, with Tazobactam 10 mcg
smiles,measurement,setting,value
CO/N=C(\C(=O)N[C@@H]1C(=O)N2C(C(=O)[O-])=C(C[N+]3(C)CCCC3)CS[C@H]12)c1csc(N)n1 [Cefepime],MIC,E. coli B-89 [1]; with Tazobactam 8 mcg,2 µg/mL
same,MIC,"E. coli B-89 [1]; Escherichia coli, B89, 20 h, Tazobactam 0 mcg (antibiotic alone), read-out: MIC",> 64 µg/mL
same,MIC,"E. coli M50 [2]; Escherichia coli, 20 h, Tazobactam 0 mcg (antibiotic alone), read-out: MIC",> 64 µg/mL
same,MIC,E. coli M50 [2]; with Tazobactam 4 mcg,2 µg/mL
same,MIC,E. coli M50 [2]; with Tazobactam 8 mcg,2 µg/mL
same,"Activity (MIC, method of Example 1), Table 7",E. cloacae M-20; antibiotic alone,> 64 µg/mL
same,"Activity (MIC, method of Example 1), Table 7",E. cloacae M-20; with Clavulanic acid 4 mcg,16 µg/mL
same,"Activity (MIC, method of Example 1), Table 7",E. cloacae M-20; with Clavulanic acid 8 mcg,8 µg/mL
same,"Activity (MIC, method of Example 1), Table 7",E. cloacae M-20; with Sulbactam 4 mcg,32 µg/mL
same,"Activity (MIC, method of Example 1), Table 7",E. cloacae M-20; with Sulbactam 8 mcg,16 µg/mL
same,"Activity (MIC, method of Example 1), Table 7",E. cloacae M-20; with Tazobactam 4 mcg,4 µg/mL
same,MIC,E. cloacae M-20; with Tazobactam 8 mcg,4 µg/mL
same,"Activity (MIC, method of Example 1), Table 7","E. cloacae M-20; with Tazobactam, (4 mcg)",4 µg/mL
same,MIC,"E. cloacae M-20; Enterobacter cloacae, M20, 20 h, Tazobactam 0 mcg (antibiotic alone), read-out: MIC",> 64 µg/mL
same,MIC,"K. pneumoniae M150; K. pneumoniae M150, with Tazobactam 4 mcg",4 µg/mL
same,MIC,"K. pneumoniae M150; K. pneumoniae M150, with Tazobactam 8 mcg",4 µg/mL
same,MIC,"K. pneumoniae M150; Klebsiella pneumoniae, M150, K. pneumoniae M150, Tazobactam 0 mcg (antibiotic alone), read-out: MIC",> 64 µg/mL
same,MIC,"K. pneumoniae M150; Klebsiella pneumoniae, M150, K. pneumoniae M150, with Tazobactam 4 mcg, read-out: MIC",4 µg/mL
same,MIC,"K. pneumoniae M150; Klebsiella pneumoniae, M150, K. pneumoniae M150, with Tazobactam 8 mcg, read-out: MIC",4 µg/mL
same,"Activity (MIC, method of Example 1), Table 7",E. coli 7MP [3]; antibiotic alone,> 64 µg/mL
same,"Activity (MIC, method of Example 1), Table 7",E. coli 7MP [3]; with Clavulanic acid 4 mcg,16 µg/mL
same,"Activity (MIC, method of Example 1), Table 7",E. coli 7MP [3]; with Clavulanic acid 8 mcg,8 µg/mL
same,"Activity (MIC, method of Example 1), Table 7",E. coli 7MP [3]; with Sulbactam 4 mcg,16 µg/mL
same,"Activity (MIC, method of Example 1), Table 7",E. coli 7MP [3]; with Sulbactam 8 mcg,16 µg/mL
same,"Activity (MIC, method of Example 1), Table 7",E. coli 7MP [3]; with Tazobactam 4 mcg,8 µg/mL
same,MIC,E. coli 7MP [3]; with Tazobactam 4 mcg,8 µg/mL
same,MIC,E. coli 7MP [3]; with Tazobactam 8 mcg,4 µg/mL
same,"Activity (MIC, method of Example 1), Table 7","E. coli 7MP [3]; with Tazobactam, (4 mcg)",4 µg/mL
same,MIC,"E. coli 7MP [3]; Escherichia coli, 7MP, 20 h, Tazobactam 0 mcg (antibiotic alone), read-out: MIC",> 64 µg/mL
same,"Activity (MIC, method of Example 1), Table 7",E. coli B123; antibiotic alone,> 64 µg/mL
same,"Activity (MIC, method of Example 1), Table 7",E. coli B123; with Clavulanic acid 4 mcg,8 µg/mL
same,"Activity (MIC, method of Example 1), Table 7",E. coli B123; with Clavulanic acid 8 mcg,8 µg/mL
same,"Activity (MIC, method of Example 1), Table 7",E. coli B123; with Sulbactam 4 mcg,8 µg/mL
same,"Activity (MIC, method of Example 1), Table 7",E. coli B123; with Sulbactam 8 mcg,16 µg/mL
same,"Activity (MIC, method of Example 1), Table 7",E. coli B123; with Tazobactam 4 mcg,4 µg/mL
same,"Activity (MIC, method of Example 1), Table 7","E. coli B123; with Tazobactam, (4 mcg)",2 µg/mL
same,MIC,E. coli B123; Tazobactam 0 mcg (antibiotic alone),> 64 µg/mL
same,MIC,E. coli B123; with Tazobactam 4 mcg,4 µg/mL
same,MIC,E. coli B123; with Tazobactam 8 mcg,2 µg/mL
same,Zone of Inhibition,E. coli B-89 [4]; [7],8 mm
same,Interpretation of zone as per CLSI recommendations,"E. coli B-89 [4]; Table 5, ESBL inhibitor 0 mcg",(R)
same,Interpretation of zone as per CLSI recommendations,E. coli B-89 [4]; [8],(S)
same,Zone of Inhibition,E. coli B-89 [4]; with Tazobactam 10 mcg,20 mm
same,Zone of Inhibition,E. coli B-123; [7],8 mm
same,Interpretation of zone as per CLSI recommendations,"E. coli B-123; Table 5, ESBL inhibitor 0 mcg",(R)
same,Interpretation of zone as per CLSI recommendations,E. coli B-123; [8],(S)
same,Zone of Inhibition,E. coli B-123; with Tazobactam 10 mcg,20 mm
same,Zone of Inhibition,E. coli M50 [5]; [7],7.5 mm
same,Interpretation of zone as per CLSI recommendations,"E. coli M50 [5]; Table 5, ESBL inhibitor 0 mcg",(R)
same,Interpretation of zone as per CLSI recommendations,E. coli M50 [5]; [8],(S)
same,Zone of Inhibition,E. coli M50 [5]; with Tazobactam 10 mcg,24 mm
same,Zone of Inhibition,E. coli S-112; [7],17 mm
same,Interpretation of zone as per CLSI recommendations,"E. coli S-112; Table 5, ESBL inhibitor 0 mcg",(I)
same,Interpretation of zone as per CLSI recommendations,E. coli S-112; [8],(S)
same,Zone of Inhibition,E. coli S-112; with Tazobactam 10 mcg,20.5 mm
same,Zone of Inhibition,E. coli M-138; [7],Nil
same,Interpretation of zone as per CLSI recommendations,"E. coli M-138; Table 5, ESBL inhibitor 0 mcg",(R)
same,Interpretation of zone as per CLSI recommendations,E. coli M-138; [8],(S)
same,Zone of Inhibition,E. coli M-138; with Tazobactam 10 mcg,23 mm
same,Zone of Inhibition,E. coli 7MP [6]; [7],16 mm
same,Interpretation of zone as per CLSI recommendations,"E. coli 7MP [6]; Table 5, ESBL inhibitor 0 mcg",(I)
same,Interpretation of zone as per CLSI recommendations,E. coli 7MP [6]; [8],(S)
same,Zone of Inhibition,E. coli 7MP [6]; with Tazobactam 10 mcg,20.5 mm
